Test [1] deals with 5-hydroxytryptamine receptor 3A (Homo sapiens, UniProt P46098). In words: GPCRScan assay: inhibition of 5-HT3. Details: radioligand conc. used [nm] 1.0 – 2.0, parental cells HEKT.
Test [2] concerns the target Sigma intracellular receptor 2 (Homo sapiens, UniProt Q5BJF2). In words: GPCRScan assay: inhibition of Sigma 2. Details: radioligand conc. used [nm] 5.0, parental cells HEKT.
Test [3] has as its target Sodium-dependent noradrenaline transporter (Homo sapiens) (UniProt P23975). The note with it: Compound concentration 10.0 uM.
In test [4] the target is Alpha-2B adrenergic receptor (Homo sapiens) (UniProt P18089). The note with it: Compound concentration 10.0 uM.
Test [5] concerns the target Glutamate receptor ionotropic, kainate (Rattus norvegicus) (UniProt P22756+Q01812+P42260+P42264+Q63273). In words: Inhibition of Glutamate, Kainate at 10 µM in the Eurofins-Panlabs radioligand binding assay (Eurofins_assay_232700). Particulars: Compound concentration 10.0 uM.
The species named for the next test is Homo sapiens. In words: Inhibition of Nicotinic Acetylcholine at compound concentration of 10.0 uM in the Eurofins-Panlabs radioligand binding assay (Eurofins_assay_258590). In kind it is protein-complex assay. Particulars: Compound concentration 10.0 uM.
Test [6] has as its target Prostacyclin receptor (Homo sapiens) (UniProt P43119). In words: IP (PGI2) Eurofins-Panlabs radioligand binding assay. Set-up: ligand concentration 6 nM.
In test [7] the target is T1, Prostaglandin D2 receptor (Homo sapiens) (UniProt Q13258).
T1 sequence (whole entry): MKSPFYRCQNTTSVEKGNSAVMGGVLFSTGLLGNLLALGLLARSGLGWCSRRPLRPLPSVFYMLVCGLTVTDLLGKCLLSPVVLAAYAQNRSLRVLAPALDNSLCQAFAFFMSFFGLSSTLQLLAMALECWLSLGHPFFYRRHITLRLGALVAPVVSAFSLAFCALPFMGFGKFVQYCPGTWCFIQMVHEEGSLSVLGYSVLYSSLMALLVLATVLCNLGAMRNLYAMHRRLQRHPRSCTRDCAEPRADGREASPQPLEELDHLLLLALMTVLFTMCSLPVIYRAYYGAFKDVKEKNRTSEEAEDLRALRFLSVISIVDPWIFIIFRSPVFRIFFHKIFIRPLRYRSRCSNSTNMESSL
In words: Prostanoid DP Eurofins-Panlabs radioligand binding assay. Set-up: ligand concentration 2 nM.

Test [8] has as its target Adenosine receptor A1 (Homo sapiens) (UniProt P30542). The note with it: Compound concentration 10.0 uM.
In test [9] the target is Adenosine receptor A2a (Homo sapiens) (UniProt P29274). Particulars: Compound concentration 10.0 uM.
Adenosine receptor A2a (Homo sapiens), sequence (P29274 whole entry): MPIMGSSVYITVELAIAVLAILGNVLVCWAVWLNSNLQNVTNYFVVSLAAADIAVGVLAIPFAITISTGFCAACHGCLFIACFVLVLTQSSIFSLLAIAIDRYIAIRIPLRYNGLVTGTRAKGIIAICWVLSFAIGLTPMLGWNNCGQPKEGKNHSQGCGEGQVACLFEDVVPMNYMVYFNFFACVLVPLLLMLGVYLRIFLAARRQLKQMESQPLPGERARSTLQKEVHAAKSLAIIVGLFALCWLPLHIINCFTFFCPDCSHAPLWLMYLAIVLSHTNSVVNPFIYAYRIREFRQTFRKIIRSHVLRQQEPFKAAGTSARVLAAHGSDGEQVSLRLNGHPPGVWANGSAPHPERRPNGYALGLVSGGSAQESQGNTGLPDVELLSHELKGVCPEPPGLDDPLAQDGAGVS
In test [10] the target is Adenosine receptor A3 (Homo sapiens) (UniProt P0DMS8). Particulars: Compound concentration 10.0 uM.
Test [11] addresses T2, Alpha-2A adrenergic receptor (Homo sapiens) (UniProt P08913).
T2 sequence (whole entry): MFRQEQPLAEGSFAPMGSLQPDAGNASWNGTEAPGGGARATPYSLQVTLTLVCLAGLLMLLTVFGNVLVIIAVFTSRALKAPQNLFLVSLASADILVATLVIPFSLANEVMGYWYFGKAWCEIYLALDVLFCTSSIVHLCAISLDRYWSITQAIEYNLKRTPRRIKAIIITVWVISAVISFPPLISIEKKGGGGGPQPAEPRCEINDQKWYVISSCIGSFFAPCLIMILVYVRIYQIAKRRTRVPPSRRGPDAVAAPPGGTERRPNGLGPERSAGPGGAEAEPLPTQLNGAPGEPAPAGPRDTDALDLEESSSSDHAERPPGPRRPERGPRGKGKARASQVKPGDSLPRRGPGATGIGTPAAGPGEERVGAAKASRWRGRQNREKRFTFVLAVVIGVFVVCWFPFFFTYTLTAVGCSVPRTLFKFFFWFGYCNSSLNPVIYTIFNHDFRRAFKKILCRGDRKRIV
The note with it: Compound concentration 10.0 uM.

For test [12], the target named is D(1A) dopamine receptor (Homo sapiens) (UniProt P21728). Particulars: Compound concentration 10.0 uM.
Test [13] has as its target Endothelin-1 receptor (Homo sapiens) (UniProt P25101). The note with it: Compound concentration 10.0 uM.
Test [14] concerns the target Estrogen receptor (Homo sapiens) (UniProt P03372). The note with it: Compound concentration 10.0 uM.
Test [15] concerns the target Mu-type opioid receptor (Homo sapiens) (UniProt P35372). The note with it: Compound concentration 10.0 uM.
Test [16] addresses Sodium-dependent noradrenaline transporter (Homo sapiens) (UniProt P23975). Particulars: Compound concentration 10.0 uM. This is another data set of the same source.
For test [17], the target named is Sodium-dependent serotonin transporter (Homo sapiens) (UniProt P31645). The note with it: Compound concentration 10.0 uM.
Test [18] addresses Glucocorticoid receptor (Homo sapiens) (UniProt P04150). The note with it: Compound concentration 10.0 uM.
Test [19] addresses GABA-A receptor; anion channel (Rattus norvegicus) (UniProt O09028+P15431+P18506+P18508+P19969+P20236+P23574+P23576+P28471+P28473+P30191+P62813+P63079+P63138+Q91ZM7+Q9ES14). The note with it: Compound concentration 10.0 uM.
Test [20] deals with Insulin receptor (Homo sapiens) (UniProt P06213). The note with it: Rattus norvegicus; Compound concentration 10.0 uM.
Insulin receptor (Homo sapiens), sequence (P06213 28-758 limits assumed): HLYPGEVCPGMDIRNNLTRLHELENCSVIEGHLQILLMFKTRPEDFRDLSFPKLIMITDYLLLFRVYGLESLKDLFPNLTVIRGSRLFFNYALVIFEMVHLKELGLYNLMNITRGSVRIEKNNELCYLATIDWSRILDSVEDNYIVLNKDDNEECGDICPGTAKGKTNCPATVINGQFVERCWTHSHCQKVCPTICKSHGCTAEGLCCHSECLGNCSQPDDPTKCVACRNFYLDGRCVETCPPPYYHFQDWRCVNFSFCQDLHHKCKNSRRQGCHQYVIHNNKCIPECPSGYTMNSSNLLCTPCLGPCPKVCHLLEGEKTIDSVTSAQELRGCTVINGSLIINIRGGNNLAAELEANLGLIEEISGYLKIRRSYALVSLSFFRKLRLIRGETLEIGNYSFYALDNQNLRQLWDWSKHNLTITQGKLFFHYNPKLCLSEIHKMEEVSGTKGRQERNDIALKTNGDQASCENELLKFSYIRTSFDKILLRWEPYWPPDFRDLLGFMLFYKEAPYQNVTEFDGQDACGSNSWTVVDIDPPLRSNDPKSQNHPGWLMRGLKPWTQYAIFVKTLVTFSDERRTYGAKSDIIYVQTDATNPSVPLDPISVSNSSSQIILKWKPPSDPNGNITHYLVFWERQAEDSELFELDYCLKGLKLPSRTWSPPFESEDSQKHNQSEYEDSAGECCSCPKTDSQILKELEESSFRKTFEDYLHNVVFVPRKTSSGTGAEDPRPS
Insulin receptor (Homo sapiens), sequence (P06213 763-1382 limits assumed): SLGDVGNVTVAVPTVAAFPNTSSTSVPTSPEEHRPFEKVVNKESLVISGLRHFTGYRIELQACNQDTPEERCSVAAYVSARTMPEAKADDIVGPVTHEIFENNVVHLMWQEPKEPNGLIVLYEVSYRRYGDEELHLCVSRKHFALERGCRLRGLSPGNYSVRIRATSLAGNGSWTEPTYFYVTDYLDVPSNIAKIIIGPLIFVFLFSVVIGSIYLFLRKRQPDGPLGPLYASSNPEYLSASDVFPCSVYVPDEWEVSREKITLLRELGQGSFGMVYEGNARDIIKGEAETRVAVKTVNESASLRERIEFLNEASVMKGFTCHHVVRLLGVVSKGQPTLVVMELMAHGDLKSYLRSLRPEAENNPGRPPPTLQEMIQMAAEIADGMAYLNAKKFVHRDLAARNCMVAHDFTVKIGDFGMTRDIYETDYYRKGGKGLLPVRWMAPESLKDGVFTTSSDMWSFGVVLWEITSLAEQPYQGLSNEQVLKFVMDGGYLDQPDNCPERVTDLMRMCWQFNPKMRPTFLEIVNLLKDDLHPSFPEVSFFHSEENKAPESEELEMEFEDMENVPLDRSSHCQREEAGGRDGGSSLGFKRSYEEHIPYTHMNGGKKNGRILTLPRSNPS
Test [21] deals with T3, 5-hydroxytryptamine receptor 2C (Homo sapiens) (UniProt P28335).
T3 sequence (whole entry): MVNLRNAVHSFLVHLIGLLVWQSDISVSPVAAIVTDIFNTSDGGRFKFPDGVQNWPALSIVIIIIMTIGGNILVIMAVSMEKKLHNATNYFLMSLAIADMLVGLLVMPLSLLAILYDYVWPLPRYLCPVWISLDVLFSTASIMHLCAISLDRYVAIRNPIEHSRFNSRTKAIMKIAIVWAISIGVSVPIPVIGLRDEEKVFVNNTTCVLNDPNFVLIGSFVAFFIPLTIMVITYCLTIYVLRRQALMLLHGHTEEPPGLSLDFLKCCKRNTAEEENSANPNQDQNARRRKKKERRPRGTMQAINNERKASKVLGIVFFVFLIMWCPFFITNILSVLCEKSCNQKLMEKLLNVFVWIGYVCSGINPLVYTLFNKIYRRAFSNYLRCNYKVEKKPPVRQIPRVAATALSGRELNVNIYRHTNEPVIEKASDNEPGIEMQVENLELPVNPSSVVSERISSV
The note with it: Compound concentration 10.0 uM.

In test [22] the target is Cannabinoid receptor 2 (Homo sapiens) (UniProt P34972). The note with it: Compound concentration 10.0 uM.
Cannabinoid receptor 2 (Homo sapiens), sequence (P34972 whole entry): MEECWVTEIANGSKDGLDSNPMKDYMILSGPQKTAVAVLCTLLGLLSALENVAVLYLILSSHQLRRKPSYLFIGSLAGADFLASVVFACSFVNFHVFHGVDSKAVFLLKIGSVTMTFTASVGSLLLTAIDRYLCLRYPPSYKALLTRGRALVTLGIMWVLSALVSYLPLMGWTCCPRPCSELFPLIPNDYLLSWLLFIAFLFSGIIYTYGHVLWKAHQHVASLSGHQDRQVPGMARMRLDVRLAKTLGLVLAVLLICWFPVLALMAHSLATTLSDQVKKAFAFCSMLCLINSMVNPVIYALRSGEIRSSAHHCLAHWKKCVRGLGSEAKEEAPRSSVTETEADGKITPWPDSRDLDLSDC
In test [23] the target is Growth hormone secretagogue receptor type 1 (Homo sapiens) (UniProt Q92847). Particulars: Compound concentration 10.0 uM.
[24] abbreviates: Compound concentration 0.001 uM.

Data on 2 molecules can be found in ChEMBL document CHEMBL4630901 (2021).

The structures appear in SMILES notation.

Prostacyclin receptor (Homo sapiens), sequence (P43119 whole entry): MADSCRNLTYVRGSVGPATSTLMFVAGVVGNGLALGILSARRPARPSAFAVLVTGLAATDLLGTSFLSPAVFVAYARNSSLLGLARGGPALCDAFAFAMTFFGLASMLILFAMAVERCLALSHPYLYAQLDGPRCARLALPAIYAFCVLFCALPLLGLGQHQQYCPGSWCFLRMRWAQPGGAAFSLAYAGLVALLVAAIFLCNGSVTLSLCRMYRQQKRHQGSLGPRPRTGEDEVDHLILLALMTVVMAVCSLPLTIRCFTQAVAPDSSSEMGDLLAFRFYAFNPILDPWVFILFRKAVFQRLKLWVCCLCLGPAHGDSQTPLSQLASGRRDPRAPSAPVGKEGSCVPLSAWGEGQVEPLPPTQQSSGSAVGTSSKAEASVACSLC
5-hydroxytryptamine receptor 3A, sequence (P46098 whole entry): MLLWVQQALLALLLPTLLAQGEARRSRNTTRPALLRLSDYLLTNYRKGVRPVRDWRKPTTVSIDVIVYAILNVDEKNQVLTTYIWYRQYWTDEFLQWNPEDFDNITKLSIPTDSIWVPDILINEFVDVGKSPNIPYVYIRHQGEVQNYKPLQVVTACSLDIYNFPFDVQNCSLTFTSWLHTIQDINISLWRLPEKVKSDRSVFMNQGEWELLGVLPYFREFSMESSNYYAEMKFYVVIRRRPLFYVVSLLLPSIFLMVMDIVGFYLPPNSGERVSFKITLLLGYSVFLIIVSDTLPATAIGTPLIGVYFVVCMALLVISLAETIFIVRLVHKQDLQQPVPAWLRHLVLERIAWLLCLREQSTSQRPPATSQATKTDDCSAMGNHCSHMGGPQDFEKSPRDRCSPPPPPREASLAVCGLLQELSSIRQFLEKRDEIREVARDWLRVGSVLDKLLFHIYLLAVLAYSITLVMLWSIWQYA
Sodium-dependent noradrenaline transporter (Homo sapiens), sequence (P23975 whole entry): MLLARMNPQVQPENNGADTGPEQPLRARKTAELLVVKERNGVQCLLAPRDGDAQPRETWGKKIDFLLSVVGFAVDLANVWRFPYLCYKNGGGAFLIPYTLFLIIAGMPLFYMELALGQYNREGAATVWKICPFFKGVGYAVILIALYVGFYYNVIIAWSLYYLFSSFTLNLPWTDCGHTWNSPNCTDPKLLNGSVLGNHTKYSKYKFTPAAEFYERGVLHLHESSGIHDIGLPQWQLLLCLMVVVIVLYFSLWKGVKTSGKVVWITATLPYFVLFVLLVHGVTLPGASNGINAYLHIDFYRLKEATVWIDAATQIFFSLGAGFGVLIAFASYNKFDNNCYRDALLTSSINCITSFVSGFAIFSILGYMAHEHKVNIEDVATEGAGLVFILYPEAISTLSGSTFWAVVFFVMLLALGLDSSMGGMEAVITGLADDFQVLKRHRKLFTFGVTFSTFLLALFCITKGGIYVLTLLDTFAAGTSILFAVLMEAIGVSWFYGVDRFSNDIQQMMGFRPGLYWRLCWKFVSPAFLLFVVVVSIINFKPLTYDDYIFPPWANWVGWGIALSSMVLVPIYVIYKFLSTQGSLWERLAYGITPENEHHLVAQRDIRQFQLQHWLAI
Mu-type opioid receptor (Homo sapiens), sequence (P35372 whole entry): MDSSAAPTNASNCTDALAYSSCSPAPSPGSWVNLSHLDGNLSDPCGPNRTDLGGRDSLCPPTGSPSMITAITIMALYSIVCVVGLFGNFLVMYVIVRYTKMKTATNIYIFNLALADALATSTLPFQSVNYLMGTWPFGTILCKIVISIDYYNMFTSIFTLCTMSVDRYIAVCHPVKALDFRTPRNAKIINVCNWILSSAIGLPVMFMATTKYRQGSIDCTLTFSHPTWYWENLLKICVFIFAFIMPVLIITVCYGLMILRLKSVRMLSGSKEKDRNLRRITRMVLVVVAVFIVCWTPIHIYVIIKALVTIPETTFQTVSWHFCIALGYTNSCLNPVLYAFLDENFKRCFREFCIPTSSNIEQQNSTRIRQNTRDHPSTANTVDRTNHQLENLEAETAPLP
Estrogen receptor (Homo sapiens), sequence (P03372 whole entry): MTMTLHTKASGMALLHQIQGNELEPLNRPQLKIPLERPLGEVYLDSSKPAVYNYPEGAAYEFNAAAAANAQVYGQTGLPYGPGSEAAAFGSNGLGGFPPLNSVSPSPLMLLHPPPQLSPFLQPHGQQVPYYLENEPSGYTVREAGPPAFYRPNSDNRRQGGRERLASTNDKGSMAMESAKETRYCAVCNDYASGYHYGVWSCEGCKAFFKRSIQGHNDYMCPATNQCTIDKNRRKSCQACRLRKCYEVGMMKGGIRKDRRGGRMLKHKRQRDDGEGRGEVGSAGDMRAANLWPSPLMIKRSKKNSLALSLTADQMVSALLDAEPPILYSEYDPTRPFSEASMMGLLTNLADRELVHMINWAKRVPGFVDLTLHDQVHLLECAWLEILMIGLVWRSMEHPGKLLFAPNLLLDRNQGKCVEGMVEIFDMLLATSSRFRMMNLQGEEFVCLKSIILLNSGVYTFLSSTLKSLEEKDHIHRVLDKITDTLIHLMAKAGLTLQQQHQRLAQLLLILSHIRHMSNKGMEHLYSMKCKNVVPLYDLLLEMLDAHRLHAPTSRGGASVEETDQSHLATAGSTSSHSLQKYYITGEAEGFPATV
Sigma intracellular receptor 2, sequence (Q5BJF2 whole entry): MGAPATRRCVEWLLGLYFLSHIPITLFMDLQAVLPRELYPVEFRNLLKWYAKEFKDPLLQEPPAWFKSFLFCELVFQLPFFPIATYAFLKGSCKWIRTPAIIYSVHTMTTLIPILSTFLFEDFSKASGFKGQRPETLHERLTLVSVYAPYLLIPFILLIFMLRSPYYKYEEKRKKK

One may read the inhibition as the change of the read-out against control, counted positive when it falls. For `Cc1c(N2CCNCC2)nc2ccc(Br)cc2c1C(=O)NC[C@H](CCC(=O)O)c1ccccc1Cl` [BAY-403], the Ki in test [1] (read-out: Ki) was 585 nM; in [1] (read-out: pKi (converted)), 537 nM; in [2], 1100 nM. Moreover, the inhibition is 14.1% in [3] and -3.2% in test [4].
`Cc1c(N2CCCC2)nc2ccc(Br)cc2c1C(=O)NC[C@H](CCC(=O)O)c1ccccc1Cl` [BAY-6672]: the inhibition in [5] was 11%; in the test listed under Homo sapiens it was 3%; in test [6] (setting [24]) it was 3%; in test [6] (Compound concentration 0.01 uM), -2%; in [6] (Compound concentration 0.1 uM), -3%; in test [6] (Compound concentration 1.0 uM), -0%. The inhibition in test [6] (Compound concentration 10.0 uM) is 20%; in test [7] (setting [24]), 6%; in test [7] (Compound concentration 0.01 uM), 6%; in [7] (Compound concentration 0.1 uM), 18%; in test [7] (Compound concentration 1.0 uM) it was 24%; in test [7] (Compound concentration 10.0 uM), 42%. In addition, the inhibition in test [8] was 5%; in [9], 2%; in test [10], 15%; in [11], 13%; in [12] it was 1%; in test [13], -1%. The inhibition in test [14] is 1%; in [15] it was 21%; in test [16], 32%; in test [17], -4%; in test [18], 11%; in [19], 26%. Moreover, the inhibition in test [20] is 11%; in test [21] it was 16%; in test [22], 13%; in test [23], 3%.
